Literature values as cited in patent US11090329B2, “Method and composition for treating gastro-esophageal disorders” (priority 2012, dated 2021).

Tested on: esophagitis caused by chemo-radiotherapy
Settings: patients with advanced stage III non-small-cell lung cancer

O=C(O[C@@H]1Cc2c(O)cc(O)cc2O[C@@H]1c1cc(O)c(O)c(O)c1)c1cc(O)c(O)c(O)c1 [EGCG, epigallocatechin gallate A]
esophagitis caused by chemo-radiotherapy: reduce esophagitis
